# In patent US20170065564A1, “BIS-CYCLIC GUANIDINE COMPOUND COMPOSITIONS, METHODS OF USE AND TREATMENT THEREOF” (University of South Florida, priority 2014, published 2017):
# pIC50: −log10 of the molar value.
# Experiments:
# [1] = test system: Staphylococcus aureus; test: MIC micro broth dilution assay; format: cell-based; conditions: for MIC: Staphylococcus aureus
# Procedure, shortened: (§1)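 Multidrug-resistant clinical ESKAPE isolates were grown overnight (Gram-positives in TSB, Gram-negatives in LB), diluted 1:1,000 and exposed to decreasing compound concentrations in DMF (≤2.0% DMF).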
# [2] = test system: human A549 cells; test: Cytotoxicity assay (MTT); format: cell-based
# Experimental: Cytotoxicity assays were performed using human A549 cells (adenocarcinomic human alveolar epithelial cells), as described by us previously.^44 Briefly, cells were cultured in F-12K Nutrient mixture (Kaighn's Modification) media containing L-glutamine, supplemented with 10% fetal bovine serum and 1% penicillin-streptomycin for 3 days at 37° and 5% CO2. Cells were then diluted to 1.0×10^5 ml^−1 using F-12K supplemented media, and added to 96 well tissue culture plates at a volume of 100 μl. Plates were incubated for 24 hours at 37° C. and 5% CO2, allowing the cells to adhere to the plastic. […] Plates were then incubated for 48 hours at 37° C. and 5% CO2. After 48 hours the media was removed, and new media added containing MTT (3-(4, 5-dimethylthiazol-2-yl)-2, 5-diphenyltetrazolium bromide), followed by incubation for four hours at 37° C. and 5% CO2. After 4 h, 50 μl of media was removed, replaced with DMSO and incubated for ten minutes at 37° C. in order to solubilize any formazan produced. A Biotek plate reader was used to measure the absorbance of formazan production at […], and IC50 values were determined for each of the five compounds. Front runners were solvated in 45% w/v (2-hydroxypropyl)-β-cyclodextrin in water for these studies; which was also used alone as a negative control. IC50 values were determined for each compound by comparison to vehicle only controls, to assess toxicity to human cells.
# [3] = test system: Klebsiella pneumoniae; test: MIC micro broth dilution assay; format: cell-based; conditions: for MIC: Klebsiella pneumoniae
# Procedure, shortened: as §1
# [4] = test system: ESKAPE pathogens; test: MIC micro broth dilution assay, statements and stacked scores over all ESKAPE pathogens; format: cell-based; conditions: letters E,S,K,A,P,E = ESKAPE pathogens, — = none
# Experimental: (§2) For this study we used a representative panel of multi-drug resistant clinical ESKAPE pathogen isolates (Supplemental Table S6).^42 43 3a, 44 45 Gram-positive organisms were grown in tryptic soy broth media (TSB), whilst Gram-negative organisms were grown in lysogeny Broth (LB), as described by us previously. ^43 MIC and MBC determination assays.
# (§3) The minimum inhibitory concentration (MIC) for the combinatorial libraries, deconvolved 2157 library, and individual compounds were determined as follows. Broth cultures of ESKAPE strains were grown overnight before being diluted 1 in 1,000 in fresh media. Sterile 96-well plates were loaded with culture and compounds (in DMF) were added at decreasing concentrations to equal a total volume of 200 μl per well. Care was taken to not add more than 2.0% DMF to any well. Plates were then incubated at 37° C., and MICs determined after 24 hours by visual inspection for a lack of turbidity in wells. All assays were performed in triplicate with identical results obtained. For both the scaffold ranking and positional scanning samples, relative broad-spectrum activity was determined via stacked scores: […]
# [5] = test system: S. aureus; test: Resistance serial passage assay; format: cell-based, Staphylococcus aureus; conditions: 8 passages, concentration doubled each day
# Experimental: ESKAPE pathogens were grown overnight in liquid media at 37° C. These cultures were then diluted 1:100 in fresh media, and seeded into a 96-well plate. Lead bis-cyclic guanidines or control agents were added to respective wells at half MIC concentrations. Plates were then incubated for 24 hours at 37° C., with bacteria removed from these cultures on the following day, to inoculate fresh media (1:100 dilution) containing compounds at a 2-fold higher concentrations. These were then grown overnight, and the procedure repeated for a total of eight days. […] Each experiment was performed in triplicate, yielding identical results.
# [6] = test system: Pseudomonas aeruginosa; test: MIC micro broth dilution assay; format: cell-based; conditions: for MIC: Pseudomonas aeruginosa
# Experimental: as §2
# as §3, with “Broth” for “The minimum inhibitory concentration (MIC) for the combinatorial libraries, deconvolved 2157 library, and individual compounds were determined as follows. Broth”
# [7] = test system: Acinetobacter baumannii; test: MIC micro broth dilution assay; format: cell-based; conditions: for MIC: Acinetobacter baumannii
# Procedure, shortened: as §1
structure (smiles),measurement,setting,value
CCCCCCCN1C(=N)N(CCCC[C@H]2CNC(=N)N2CCc2cccc(C(F)(F)F)c2)C[C@@H]1CCCC [Compound 1],"stacked score activity, 100/MIC, S",[1]; S. aureus,50
same,MIC,[1]; S. aureus isolate 542,2 µM
same,MIC,[1]; S. aureus isolate 626,2 µM
same,MIC,[1]; S. aureus isolate 635,2 µM
same,MIC,[1]; S. aureus isolate 648,2 µM
same,MIC,[1]; S. aureus isolate 690,2 µM
same,MIC,[1]; S. aureus isolate 693,2 µM
same,MIC,[1]; S. aureus isolate 715,2 µM
same,MIC,[1]; S. aureus isolate 728,2 µM
same,MIC,[1]; S. aureus isolate 834,2 µM
same,MIC,[1]; S. aureus isolate 1043,2 µM
same,MIC,[1]; S. aureus isolate 1049,2 µM
same,MIC,"[1]; purified compound, Table 1",1.63 µM
same,A549 cell recovery compared to vehicle only controls,[2]; 225 μM (highest concentration tested),around 40%
same,pIC50,"[2]; Homo sapiens, A549, MTT, 48 hours",3.79
same,"stacked score activity, 100/MIC, K",[3]; K. pneumoniae,33
same,MIC,[3]; K. pneumoniae isolate 1408,2 µM
same,MIC,[3]; K. pneumoniae isolate 1409,3 µM
same,MIC,[3]; K. pneumoniae isolate 1410,3 µM
same,MIC,[3]; K. pneumoniae isolate 1411,2 µM
same,MIC,[3]; K. pneumoniae isolate 1412,5 µM
same,MIC,[3]; K. pneumoniae isolate 1413,3 µM
same,MIC,[3]; K. pneumoniae isolate 1433,2 µM
same,MIC,[3]; K. pneumoniae isolate 1434,5 µM
same,MIC,[3]; K. pneumoniae isolate 1440,2 µM
same,MIC,[3]; K. pneumoniae isolate 1441,2 µM
same,MIC,"[3]; purified compound, Table 1",1.63 µM
same,concentration inhibiting 90% of isolates,[3]; panel of K. pneumoniae clinical isolates,10 µM
same,pathogens against which the compound showed activity at 5 ug/ml,[4]; dose 5 ug/ml,ESKAPE
same,pathogens against which the compound showed activity at 10 ug/ml,[4]; dose 10 ug/ml,ESKAPE
same,pathogens against which the compound showed activity at 25 ug/ml,[4]; dose 25 ug/ml,ESKAPE
same,increase in MIC after serial passage,[5],two-fold
same,MIC,[6]; P. aeruginosa isolate 1414,5 µM
same,MIC,[6]; P. aeruginosa isolate 1415,5 µM
same,MIC,[6]; P. aeruginosa isolate 1416,5 µM
same,MIC,[6]; P. aeruginosa isolate 1417,5 µM
same,MIC,[6]; P. aeruginosa isolate 1418,7 µM
same,MIC,[6]; P. aeruginosa isolate 1419,5 µM
same,MIC,[6]; P. aeruginosa isolate 1420,5 µM
same,MIC,[6]; P. aeruginosa isolate 1421,5 µM
same,MIC,[6]; P. aeruginosa isolate 1422,5 µM
same,MIC,[6]; P. aeruginosa isolate 1423,2 µM
same,MIC,"[6]; purified compound, Table 1",1.63 µM
same,concentration inhibiting 90% of isolates,[6]; panel of P. aeruginosa clinical isolates,10 µM
same,"stacked score activity, 100/MIC, A",[7]; A. baumannii,20
same,MIC,[7]; A. baumannii isolate 1403,2 µM
same,MIC,[7]; A. baumannii isolate 1643,2 µM
same,MIC,[7]; A. baumannii isolate 1644,2 µM
same,MIC,[7]; A. baumannii isolate 1647,2 µM
same,MIC,[7]; A. baumannii isolate 1648,2 µM
same,MIC,[7]; A. baumannii isolate 1649,2 µM
same,MIC,[7]; A. baumannii isolate 1650,2 µM
same,MIC,[7]; A. baumannii isolate 1651,2 µM
same,MIC,[7]; A. baumannii isolate 1653,2 µM
same,MIC,[7]; A. baumannii isolate 1654,2 µM
same,MIC,"[7]; purified compound, Table 1",1.63 µM
